# Data: article PMC11214487, “YZL-51N functions as a selective inhibitor of SIRT7 by NAD^+ competition to impede DNA damage repair” (iScience, 2024)
# Assays:
# SW620 = test: CCK-8 cell proliferation assay; assay type: cell-based; conditions: Homo sapiens, SW-620; SW620, 48 h
# Procedure: (§1) The plate was added with 10 μL CCK-8 solution to each well and incubated for 2 h at 37°C. The absorbance was measured at 450 nm using a microtiter plate reader (BioTek).
# HCT116 = test: CCK-8 cell proliferation assay; assay type: cell-based; conditions: Homo sapiens, HCT-116; HCT116, 48 h
# Procedure: as §1
# HT29 = test: CCK-8 cell proliferation assay; assay type: cell-based; conditions: Homo sapiens, HT-29; HT29, 48 h
# Procedure: as §1
# SIRT7 [1] = biological target: T1, SIRT7 (Homo sapiens, UniProt Q9NRC8); test: Dot blot assay of SIRT7-mediated H3K18ac peptide deacetylation; assay type: biochemical
# T1 construct: His-tagged full length SIRT7 protein expression from BL21 bacterial cells; His; made in house; host or cells: E. coli BL21
# T1 sequence (Q9NRC8 1-400): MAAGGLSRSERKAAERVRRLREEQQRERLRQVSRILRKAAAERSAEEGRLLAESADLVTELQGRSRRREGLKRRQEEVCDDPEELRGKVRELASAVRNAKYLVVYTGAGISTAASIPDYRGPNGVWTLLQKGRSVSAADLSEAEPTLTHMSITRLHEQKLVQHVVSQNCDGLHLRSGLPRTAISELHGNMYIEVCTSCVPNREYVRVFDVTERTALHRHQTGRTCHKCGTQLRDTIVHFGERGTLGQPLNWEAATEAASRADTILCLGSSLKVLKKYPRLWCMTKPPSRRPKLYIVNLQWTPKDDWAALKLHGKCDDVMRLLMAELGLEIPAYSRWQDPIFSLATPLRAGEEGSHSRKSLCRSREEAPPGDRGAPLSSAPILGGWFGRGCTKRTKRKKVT
# From the text: To avoid the bias of the fluorescence assay, we also performed dot blot assays for the effects of natural compounds on SIRT7-mediated deacetylation of H3K18ac peptides in vitro (Figures S2A and S2B). In this system, SIRT7 mediated a dose-dependent deacetylation of H3K18ac (Figure 1D). […] Based on comparisons of all the candidates, we selected YZL-51N as the best for further investigation (Figure 1F). […] Thus, P. americana derived YZL-51N was confirmed as an identified SIRT7 inhibitor using parallel peptide-based screening platforms.
# For dot blot assays, the reaction system containing 10 μg His-SIRT7, 0.5 mM NAD^+, 10 μM biotin-H3K18ac peptides and 50 μM potential compound was mixed and incubated at 37°C for 90 min. Samples were transferred to a polyvinylidene difluoride (PVDF) membrane, and then blocked with 5% skimmed milk. The blots were probed with H3K18ac primary antibody at RT for 2 h and then incubated with secondary antibody at RT for 1h. The bands were visualized using ECL substrates (Thermo Fisher, USA) on Tanon 5200SF Imaging System.
# SIRT7 [2] = biological target: T1, SIRT7; test: Bio-layer interferometry (BLI) binding assay; conditions: 0-40 μM, PBST pH 7.4
# Procedure: The binding affinity of SIRT1/2/6/7 with YZL-51N was determined using Super Streptavidin (SSA) biosensors in an Octet Red 96 instrument (ForteBio Inc., Menlo Park, CA, United States). Briefly, the biotinylated SIRT1/2/6/7 proteins were immobilized onto the surface of SSA biosensors. Increasing concentrations of YZL-51N were allowed to flow through the chips at room temperature in PBST buffer (pH 7.4). Assays were performed in black 96-well flat bottom plates on a shaker at 1000 r/min. The association and dissociation of YZL-51N with SIRT1/2/6/7 were measured for 300 s. Kinetic parameters and affinities were calculated from a non-linear global fit of the data between YZL-51N and SIRT1/2/6/7 using Octet Data Analysis software version 7.0 (Fortebio).
compound,measurement,setting,value
COC(=O)/C(=C\C(=O)c1ccc(O)c(O)c1)c1ccc(O)c(O)c1 [YZL-51N],IC50,SW620,28.6 µM
same,IC50,HCT116,37.5 µM
same,IC50,HT29,47.5 µM
same,Rescue of H3K18 acetylation,"SIRT7 [1]; dot blot screening, 50 μM",rescued H3K18 acetylation
same,EC50,SIRT7 [1]; read-out: Dot blot assay H3K18ac rescue EC50,13.5 µM
same,Kd,SIRT7 [2],3.3 µM
